The values below come from patent US8940913B2, “Herbicides” (Syngenta Crop Protection, LLC, priority 2007, dated 2015).

Holding throughout (format): in vivo
Test [1] concerns Alopecurus myosuroides (ALOMY). Put plainly: Pre-emergence herbicidal activity, glasshouse pot test. The following applies: 480 h, rate 250 g/ha, evaluated 20 days later, 100=total damage to plant, 0=no damage to plant. On the procedure:
(§1) Monocotyledonous and dicotyledonous test plants were sown in standard soil in pots. After cultivation for one day (pre-emergence) or after 10 days cultivation (post-emergence) under controlled conditions in a glasshouse, the plants were sprayed with an aqueous spray solution derived from the formulation of the technical active ingredient in 0.6 ml acetone and 45 ml formulation solution containing 10.6% Emulsogen EL (Registry number 61791-12-6), 42.2% N-methylpyrrolidone, 42.2% dipropylene glycol monomethyl ether (Registry number 34590-94-8) and 0.2% X-77 (Registry number 11097-66-8). The test plants were then grown in a greenhouse under optimum conditions until, 15 days later for post-emergence and 20 days for pre-emergence, the test was evaluated (100=total damage to plant; 0=no damage to plant). Test Plants: Alopecurus myosuroides (ALOMY), Avena fatua (AVEFA), Lolium perenne (LOLPE), Setaria faberi (SETFA), Digitaria sanguinalis (DIGSA), Echinochloa crus-galli (ECHCG)

Test [2] concerns Avena fatua (AVEFA). Described as above. Conditions: 480 h, rate 250 g/ha, evaluated 20 days later, 100=total damage to plant, 0=no damage to plant. On the procedure:
as §1

Test [3] relates to Digitaria sanguinalis (DIGSA). The description is as above. Conditions: 480 h, rate 250 g/ha, evaluated 20 days later, 100=total damage to plant, 0=no damage to plant. On the procedure: as §1
The test system of test [4] is Echinochloa crus-galli (ECHCG). Described as above. The following applies: 480 h, rate 250 g/ha, evaluated 20 days later, 100=total damage to plant, 0=no damage to plant. As for the experimental part:
as §1

Test [5] concerns Lolium perenne (LOLPE). The description is as above. The following applies: 480 h, rate 250 g/ha, evaluated 20 days later, 100=total damage to plant, 0=no damage to plant. As for the experimental part: as §1
Test [6] relates to Setaria faberi (SETFA). Described as above. Conditions: 480 h, rate 250 g/ha, evaluated 20 days later, 100=total damage to plant, 0=no damage to plant. As for the experimental part:
as §1

The subject of test [7] is Alopecurus myosuroides (ALOMY). Put plainly: Post-emergence herbicidal activity, glasshouse pot test. The following applies: 360 h, rate 125 g/ha, evaluated 15 days later, 100=total damage to plant, 0=no damage to plant. As for the experimental part: as §1
Test [8] has as its system Avena fatua (AVEFA). The test is described as above. Conditions: 360 h, rate 125 g/ha, evaluated 15 days later, 100=total damage to plant, 0=no damage to plant. On the procedure:
as §1

For test [9], the system named is Digitaria sanguinalis (DIGSA). The test is described as above. Conditions: 360 h, rate 125 g/ha, evaluated 15 days later, 100=total damage to plant, 0=no damage to plant. On the procedure:
as §1

In test [10] the test system is Echinochloa crus-galli (ECHCG). The test is described as above. Conditions: 360 h, rate 125 g/ha, evaluated 15 days later, 100=total damage to plant, 0=no damage to plant. As for the experimental part:
as §1

Test [11] relates to Lolium perenne (LOLPE). Described as above. The following applies: 360 h, rate 125 g/ha, evaluated 15 days later, 100=total damage to plant, 0=no damage to plant. On the procedure: as §1
For test [12], the system named is Setaria faberi (SETFA). The description is as above. Conditions: 360 h, rate 125 g/ha, evaluated 15 days later, 100=total damage to plant, 0=no damage to plant. As for the experimental part: as §1

Regarding `CCc1ccc(-c2ccc(Cl)cc2Cl)cc1C1=C(O)[C@H]2[C@@H](C1=O)[C@@H]1CC[C@H]2O1` (racemic) [Compound T11, (1RS,2SR,6RS,7SR)-4-(2′,4′-dichloro-4-ethylbiphen-3-yl)-10-oxa-tricyclo[5.2.1.0^2,6]decane-3,5-dione], the pest or weed control at 250 g/ha in test [1] is 70%; with Avena fatua (AVEFA) [2] it was 60%; in [3], 90%; in [4] it was 100%; in the test on Lolium perenne (LOLPE) [5] it was 80%; with Setaria faberi (SETFA) [6], 100%. Further, the pest or weed control at 125 g/ha in test [7] came out at 100%; with Avena fatua (AVEFA) [8], 90%; in test [9], 90%; in test [10], 100%; with Lolium perenne (LOLPE) [11], 50%; in the test on Setaria faberi (SETFA) [12], 100%.

For the molecule `CCc1ccc(-c2ccc(Cl)c(F)c2Cl)cc1C1=C(O)[C@H]2[C@@H](C1=O)[C@]1(C)CC[C@@]2(C)O1` [Compound T37], the pest or weed control at 250 g/ha was determined as 20% in test [1]; 30% in the test with Avena fatua (AVEFA) [2]; 100% in test [3]; 80% in test [4]; 50% with Lolium perenne (LOLPE) [5]; 80% in the test with Setaria faberi (SETFA) [6]. Further, the pest or weed control at 125 g/ha in [7] came to 90%; with Avena fatua (AVEFA) [8], 100%; in test [9], 100%; in test [10] it was 100%; with Lolium perenne (LOLPE) [11], 70%; in the test with Setaria faberi (SETFA) [12] it was 100%.

As to `Cc1cc(-c2ccccc2)cc(C)c1C1=C(OC(=O)C(C)(C)C)[C@H]2[C@@H](C1=O)[C@@H]1CC[C@@]2(C)O1` [Compound P8], the pest or weed control at 250 g/ha in [1] is 100%; in the test with Avena fatua (AVEFA) [2], 90%; in [3], 100%; in test [4], 90%; in the test with Lolium perenne (LOLPE) [5], 100%; in the test with Setaria faberi (SETFA) [6], 100%. In addition, the pest or weed control at 125 g/ha was 100% in test [7]; 100% in the test on Avena fatua (AVEFA) [8]; 100% in test [9]; 100% in test [10]; 80% with Lolium perenne (LOLPE) [11]; 100% in the test on Setaria faberi (SETFA) [12].

For the molecule `CCc1ccc(-c2ccc(Cl)c(C(F)(F)F)c2)cc1C1=C(O)[C@H]2[C@@H](C1=O)[C@]1(C)CC[C@@]2(C)O1` [Compound T31], the pest or weed control at 250 g/ha is 0% in test [1]; 50% in the test on Avena fatua (AVEFA) [2]; 30% in test [3]; 60% in test [4]; 20% in the test on Lolium perenne (LOLPE) [5]; 10% with Setaria faberi (SETFA) [6]. Besides, the pest or weed control at 125 g/ha in [7] was 90%; with Avena fatua (AVEFA) [8], 80%; in test [9] it was 100%; in test [10], 100%; in the test on Lolium perenne (LOLPE) [11] it was 40%; in the test with Setaria faberi (SETFA) [12] it was 100%.

With `CCc1ccc(-c2ccc(Cl)cc2)cc1C1=C(O)[C@H]2[C@@H](C1=O)[C@@H]1CC[C@H]2O1` [Compound T2], the pest or weed control at 250 g/ha stood at 70% in [1]; 40% with Avena fatua (AVEFA) [2]; 70% in [3]; 90% in [4]; 50% in the test on Lolium perenne (LOLPE) [5]; 80% in the test on Setaria faberi (SETFA) [6]. Also, the pest or weed control at 125 g/ha was 100% in test [7]; 100% with Avena fatua (AVEFA) [8]; 100% in test [9]; 100% in [10]; 80% in the test with Lolium perenne (LOLPE) [11]; 100% in the test with Setaria faberi (SETFA) [12].
